# Laboratory results taken from PubChem BioAssay AID1919003 (Molecular Pharmacology Branch, DTP, NCI, 2023).
# System: 786-0 complex spheroids with HUVEC/MSC, growth % test/control
# Assay: Anticancer human tumor 786-0 cell line growth inhibition [AhR];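 also: compound exposure lasted seven days before the read-out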
# Conditions: for IC50: curve of first compound; for viability, T/C: stronger effect = lower value
# In short: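 Agents were dosed in half-log steps down from roughly clinical Cmax, or from 10 microM where Cmax was unknown, alone and with AhR antagonists. Read-out: percent test/control growth of tumor spheroids containing HUVEC and MSC stromal cells.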
# [1] = second compound 0.1 µM, first compound 0.0316 µM
# [2] = second compound 0.1 µM, first compound 0.1 µM
# [3] = second compound 0.1 µM, first compound 0.316 µM
# [4] = second compound 0.1 µM, first compound 1 µM
# [5] = second compound 0.1 µM, first compound 3.16 µM
# [6] = second compound 0.1 µM, first compound 10 µM
# [7] = second compound 0.316 µM, first compound 0.0316 µM
# [8] = second compound 0.316 µM, first compound 0.1 µM
# [9] = second compound 0.316 µM, first compound 0.316 µM
# [10] = second compound 0.316 µM, first compound 1 µM
# [11] = second compound 0.316 µM, first compound 3.16 µM
# [12] = second compound 0.316 µM, first compound 10 µM
# [13] = second compound 1 µM, first compound 0.0316 µM
# [14] = second compound 1 µM, first compound 0.1 µM
# [15] = second compound 1 µM, first compound 0.316 µM
# [16] = second compound 1 µM, first compound 1 µM
# [17] = second compound 1 µM, first compound 3.16 µM
# [18] = second compound 1 µM, first compound 10 µM
# [19] = second compound 3.16 µM, first compound 0.0316 µM
# [20] = second compound 3.16 µM, first compound 0.1 µM
# [21] = second compound 3.16 µM, first compound 0.316 µM
# [22] = second compound 3.16 µM, first compound 1 µM
# [23] = second compound 3.16 µM, first compound 3.16 µM
# [24] = second compound 3.16 µM, first compound 10 µM
# [25] = second compound 10 µM, first compound 0.0316 µM
# [26] = second compound 10 µM, first compound 0.1 µM
# [27] = second compound 10 µM, first compound 0.316 µM
# [28] = second compound 10 µM, first compound 1 µM
# [29] = second compound 10 µM, first compound 3.16 µM
# [30] = second compound 10 µM, first compound 10 µM
# [31] = second compound 0.1 µM, first compound 0.00949 µM
# [32] = second compound 0.1 µM, first compound 0.03 µM
# [33] = second compound 0.1 µM, first compound 0.0949 µM
# [34] = second compound 0.1 µM, first compound 0.3 µM
# [35] = second compound 0.316 µM, first compound 0.00949 µM
# [36] = second compound 0.316 µM, first compound 0.03 µM
# [37] = second compound 0.316 µM, first compound 0.0949 µM
# [38] = second compound 0.316 µM, first compound 0.3 µM
# [39] = second compound 1 µM, first compound 0.00949 µM
# [40] = second compound 1 µM, first compound 0.03 µM
# [41] = second compound 1 µM, first compound 0.0949 µM
# [42] = second compound 1 µM, first compound 0.3 µM
# [43] = second compound 3.16 µM, first compound 0.00949 µM
# [44] = second compound 3.16 µM, first compound 0.03 µM
# [45] = second compound 3.16 µM, first compound 0.0949 µM
# [46] = second compound 3.16 µM, first compound 0.3 µM
# [47] = second compound 10 µM, first compound 0.00949 µM
# [48] = second compound 10 µM, first compound 0.03 µM
# [49] = second compound 10 µM, first compound 0.0949 µM
# [50] = second compound 10 µM, first compound 0.3 µM
structure (smiles),measurement,setting,value
CC1(C)CCC(CN2CCN(c3ccc(C(=O)NS(=O)(=O)c4ccc(NCC5CCOCC5)c([N+](=O)[O-])c4)c(Oc4cnc5[nH]ccc5c4)c3)CC2)=C(c2ccc(Cl)cc2)C1 + Cc1cncc(-c2nc(NCCc3c[nH]c4ccccc34)c3ncn(C(C)C)c3n2)c1,IC50,second compound 0.1 µM,> 10 µM
same,IC50,second compound 0.316 µM,> 10 µM
same,IC50,second compound 1 µM,> 10 µM
same,IC50,second compound 3.16 µM,> 10 µM
same,IC50,second compound 10 µM,< 0.0316 µM
same,"viability, T/C",[1],107%
same,"viability, T/C",[2],123%
same,"viability, T/C",[3],117%
same,"viability, T/C",[4],109%
same,"viability, T/C",[5],113%
same,"viability, T/C",[6],93.3%
same,"viability, T/C",[7],117%
same,"viability, T/C",[8],118%
same,"viability, T/C",[9],119%
same,"viability, T/C",[10],129%
same,"viability, T/C",[11],102%
same,"viability, T/C",[12],93.8%
same,"viability, T/C",[13],118%
same,"viability, T/C",[14],105%
same,"viability, T/C",[15],109%
same,"viability, T/C",[16],103%
same,"viability, T/C",[17],102%
same,"viability, T/C",[18],97.3%
same,"viability, T/C",[19],65.4%
same,"viability, T/C",[20],71.9%
same,"viability, T/C",[21],74.4%
same,"viability, T/C",[22],76.8%
same,"viability, T/C",[23],67.4%
same,"viability, T/C",[24],70.8%
same,"viability, T/C",[25],5.05%
same,"viability, T/C",[26],3.29%
same,"viability, T/C",[27],6.81%
same,"viability, T/C",[28],6.55%
same,"viability, T/C",[29],6.02%
same,"viability, T/C",[30],23.1%
CC1COCCN1c1cc(C2(S(C)(=N)=O)CC2)nc(-c2ccnc3[nH]ccc23)n1 (stereo not given) + Cc1cncc(-c2nc(NCCc3c[nH]c4ccccc34)c3ncn(C(C)C)c3n2)c1,IC50,second compound 0.1 µM,7.11 µM
same,IC50,second compound 0.316 µM,6.48 µM
same,IC50,second compound 1 µM,4.84 µM
same,IC50,second compound 3.16 µM,1.23 µM
same,IC50,second compound 10 µM,< 0.0316 µM
same,"viability, T/C",[1],107%
same,"viability, T/C",[2],118%
same,"viability, T/C",[3],116%
same,"viability, T/C",[4],113%
same,"viability, T/C",[5],97.7%
same,"viability, T/C",[6],29.8%
same,"viability, T/C",[7],122%
same,"viability, T/C",[8],117%
same,"viability, T/C",[9],112%
same,"viability, T/C",[10],108%
same,"viability, T/C",[11],91.9%
same,"viability, T/C",[12],25.3%
same,"viability, T/C",[13],100%
same,"viability, T/C",[14],110%
same,"viability, T/C",[15],105%
same,"viability, T/C",[16],125%
same,"viability, T/C",[17],67%
same,"viability, T/C",[18],20.9%
same,"viability, T/C",[19],62.4%
same,"viability, T/C",[20],64.5%
same,"viability, T/C",[21],69%
same,"viability, T/C",[22],53.6%
same,"viability, T/C",[23],26.9%
same,"viability, T/C",[24],5.56%
same,"viability, T/C",[25],18.2%
same,"viability, T/C",[26],18.7%
same,"viability, T/C",[27],20.6%
same,"viability, T/C",[28],17.5%
same,"viability, T/C",[29],3.02%
same,"viability, T/C",[30],0.89%
CCN(c1cc(-c2ccc(CN3CCOCC3)cc2)cc(C(=O)NCc2c(C)cc(C)[nH]c2=O)c1C)C1CCOCC1 + Cc1cncc(-c2nc(NCCc3c[nH]c4ccccc34)c3ncn(C(C)C)c3n2)c1,IC50,second compound 0.1 µM,> 3 µM
same,IC50,second compound 0.316 µM,> 3 µM
same,IC50,second compound 1 µM,> 3 µM
same,IC50,second compound 3.16 µM,> 3 µM
same,IC50,second compound 10 µM,< 0.00949 µM
same,"viability, T/C",[31],121%
same,"viability, T/C",[32],119%
same,"viability, T/C",[33],112%
same,"viability, T/C",[34],121%
same,"viability, T/C","second compound 0.1 µM, first compound 0.949 µM",120%
same,"viability, T/C","second compound 0.1 µM, first compound 3 µM",131%
same,"viability, T/C",[35],125%
same,"viability, T/C",[36],120%
same,"viability, T/C",[37],128%
same,"viability, T/C",[38],131%
same,"viability, T/C","second compound 0.316 µM, first compound 0.949 µM",131%
same,"viability, T/C","second compound 0.316 µM, first compound 3 µM",138%
same,"viability, T/C",[39],113%
same,"viability, T/C",[40],118%
same,"viability, T/C",[41],113%
same,"viability, T/C",[42],114%
same,"viability, T/C","second compound 1 µM, first compound 0.949 µM",126%
same,"viability, T/C","second compound 1 µM, first compound 3 µM",127%
same,"viability, T/C",[43],75.8%
same,"viability, T/C",[44],73.8%
same,"viability, T/C",[45],79.2%
same,"viability, T/C",[46],73.5%
same,"viability, T/C","second compound 3.16 µM, first compound 0.949 µM",74.4%
same,"viability, T/C","second compound 3.16 µM, first compound 3 µM",76.9%
same,"viability, T/C",[47],16%
same,"viability, T/C",[48],14.8%
same,"viability, T/C",[49],23.9%
same,"viability, T/C",[50],14.8%
same,"viability, T/C","second compound 10 µM, first compound 0.949 µM",4.25%
same,"viability, T/C","second compound 10 µM, first compound 3 µM",0.53%
Nc1ncn(C2CC(O)C(CO)S2)c(=O)n1 (stereo not given) + Cc1cncc(-c2nc(NCCc3c[nH]c4ccccc34)c3ncn(C(C)C)c3n2)c1,IC50,second compound 0.1 µM,> 0.3 µM
same,IC50,second compound 0.316 µM,> 0.3 µM
same,IC50,second compound 1 µM,> 0.3 µM
same,IC50,second compound 3.16 µM,0.0223 µM
same,IC50,second compound 10 µM,< 0.000949 µM
same,"viability, T/C","second compound 0.1 µM, first compound 0.000949 µM",120%
same,"viability, T/C","second compound 0.1 µM, first compound 0.003 µM",123%
same,"viability, T/C",[31],122%
same,"viability, T/C",[32],118%
same,"viability, T/C",[33],94.2%
same,"viability, T/C",[34],82.7%
same,"viability, T/C","second compound 0.316 µM, first compound 0.000949 µM",121%
same,"viability, T/C","second compound 0.316 µM, first compound 0.003 µM",117%
same,"viability, T/C",[35],121%
same,"viability, T/C",[36],110%
same,"viability, T/C",[37],94.7%
same,"viability, T/C",[38],79.3%
same,"viability, T/C","second compound 1 µM, first compound 0.000949 µM",101%
same,"viability, T/C","second compound 1 µM, first compound 0.003 µM",102%
same,"viability, T/C",[39],94.3%
same,"viability, T/C",[40],90.3%
same,"viability, T/C",[41],61.1%
same,"viability, T/C",[42],57.6%
same,"viability, T/C","second compound 3.16 µM, first compound 0.000949 µM",69.2%
same,"viability, T/C","second compound 3.16 µM, first compound 0.003 µM",65.2%
same,"viability, T/C",[43],59.8%
same,"viability, T/C",[44],46.6%
same,"viability, T/C",[45],40.4%
same,"viability, T/C",[46],39.9%
same,"viability, T/C","second compound 10 µM, first compound 0.000949 µM",17.2%
same,"viability, T/C","second compound 10 µM, first compound 0.003 µM",14.9%
same,"viability, T/C",[47],22%
same,"viability, T/C",[48],15.6%
same,"viability, T/C",[49],10.9%
same,"viability, T/C",[50],9.94%
